Laboratory results as given in the supplement of paper PMC10307832.

How the values were obtained:
Experiment in all cases: relative viability (nuclei count vs DMSO), 5 days (fraction); higher = more cells survive
Gemcitabine + Olaparib = compound: Nc1ccn([C@@H]2O[C@H](CO)[C@@H](O)C2(F)F)c(=O)n1 [Gemcitabine] + O=C(c1cc(Cc2n[nH]c(=O)c3ccccc23)ccc1F)N1CCN(C(=O)C2CC2)CC1 [Olaparib] (partner 8 µM)
How it was run: (§1)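 Relative viability was taken as the ratio of nuclei in treated wells to nuclei in vehicle wells. Lung cancer cell lines in 1536-well plates received compounds by pin tool one day after seeding, either one drug alone or a fixed anchor-drug dose plus five library-drug doses (not always all listed) in √10 steps. Nuclei were counted on 4× images after 5 days of treatment, and values are medians of duplicate plates.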

Gemcitabine + AZD7762 = compound: Nc1ccn([C@@H]2O[C@H](CO)[C@@H](O)C2(F)F)c(=O)n1 [Gemcitabine] + NC(=O)Nc1cc(-c2cccc(F)c2)sc1C(=O)N[C@H]1CCCNC1 [AZD7762] (partner 0.2 µM)
How it was run: as §1

Gemcitabine + Lapatinib = compound: Nc1ccn([C@@H]2O[C@H](CO)[C@@H](O)C2(F)F)c(=O)n1 [Gemcitabine] + CS(=O)(=O)CCNCc1ccc(-c2ccc3ncnc(Nc4ccc(OCc5cccc(F)c5)c(Cl)c4)c3c2)o1 [Lapatinib] (partner 2 µM)
How it was run: as §1

Gemcitabine + Decitabine = compound: Nc1ccn([C@@H]2O[C@H](CO)[C@@H](O)C2(F)F)c(=O)n1 [Gemcitabine] + Nc1ncn([C@H]2C[C@H](O)[C@@H](CO)O2)c(=O)n1 [Decitabine] (partner 2 µM)
How it was run: as §1

| Cell Line | relative viability (Gemcitabine + Olaparib; first compound 0.001 µM) | relative viability (Gemcitabine + Olaparib; first compound 0.003162 µM) | relative viability (Gemcitabine + Olaparib; first compound 0.01 µM) | relative viability (Gemcitabine + Olaparib; first compound 0.03162 µM) | relative viability (Gemcitabine + Olaparib; first compound 0.1 µM) | relative viability (Gemcitabine + AZD7762; first compound 0.001 µM) | relative viability (Gemcitabine + AZD7762; first compound 0.003162 µM) | relative viability (Gemcitabine + AZD7762; first compound 0.01 µM) | relative viability (Gemcitabine + AZD7762; first compound 0.03162 µM) | relative viability (Gemcitabine + AZD7762; first compound 0.1 µM) | relative viability (Gemcitabine + Lapatinib; first compound 0.001 µM) | relative viability (Gemcitabine + Lapatinib; first compound 0.003162 µM) | relative viability (Gemcitabine + Lapatinib; first compound 0.01 µM) | relative viability (Gemcitabine + Lapatinib; first compound 0.03162 µM) | relative viability (Gemcitabine + Lapatinib; first compound 0.1 µM) | relative viability (Gemcitabine + Decitabine; first compound 0.001 µM) | relative viability (Gemcitabine + Decitabine; first compound 0.003162 µM) | relative viability (Gemcitabine + Decitabine; first compound 0.01 µM) | relative viability (Gemcitabine + Decitabine; first compound 0.03162 µM) | relative viability (Gemcitabine + Decitabine; first compound 0.1 µM) |
| --- | --- | --- | --- | --- | --- | --- | --- | --- | --- | --- | --- | --- | --- | --- | --- | --- | --- | --- | --- | --- |
| 201T | 0.884 | 0.844 | 0.826 | 0.302 | 0.262 | 0.59 | 0.584 | 0.237 | 0.225 | 0.233 | 0.981 | 1.04 | 1.03 | 0.942 | 0.537 | 0.83 | 0.87 | 0.906 | 0.776 | 0.446 |
| A-427 | 0.756 | 0.745 | 0.481 | 0.259 | 0.199 | 0.472 | 0.302 | 0.174 | 0.188 | 0.146 | 1.09 | 0.686 | 0.808 | 0.199 | 0.13 | 0.629 | 0.546 | 0.463 | 0.342 | 0.273 |
| ABC-1 |  | 0.687 | 0.54 | 0.427 | 0.398 | 0.748 | 0.757 | 0.964 | 0.295 | 0.304 | 1.14 | 1.2 | 0.95 | 0.88 | 0.664 |  | 0.798 | 1.07 | 0.497 | 0.436 |
| BEN | 0.946 | 0.421 | 0.234 | 0.193 | 0.145 | 0.441 | 0.252 | 0.184 | 0.184 | 0.253 | 0.625 | 0.529 | 0.197 | 0.112 | 0.108 | 0.698 | 0.456 | 0.413 | 0.249 | 0.257 |
| CAL-12T | 0.714 | 0.641 | 0.551 | 0.228 | 0.201 | 0.624 | 0.548 | 0.227 | 0.206 | 0.23 | 0.786 | 0.65 | 0.396 | 0.264 | 0.181 |  |  |  |  |  |
| COR-L23 | 0.35 | 0.31 | 0.141 | 0.0915 | 0.0858 |  |  |  |  |  | 1.02 | 0.896 | 0.72 | 0.105 | 0.105 | 0.423 | 0.463 | 0.443 | 0.217 | 0.146 |
| COR-L 105 | 0.692 | 0.774 | 0.625 | 0.357 | 0.282 |  |  |  |  |  | 0.362 | 0.355 | 0.314 | 0.302 | 0.269 | 0.68 | 0.596 | 0.46 | 0.37 | 0.3 |
| Calu-6 | 0.529 | 0.465 | 0.24 | 0.119 | 0.0919 |  |  |  |  |  | 1.03 | 0.799 | 0.348 | 0.167 | 0.126 |  |  |  |  |  |
| ChaGo-K-1 | 0.471 | 0.452 | 0.22 | 0.182 | 0.146 | 0.819 | 0.47 | 0.186 | 0.141 | 0.153 |  |  |  |  |  | 0.517 | 0.467 | 0.337 | 0.205 | 0.187 |
| EKVX | 0.898 | 0.672 | 0.289 | 0.174 | 0.11 | 0.49 | 0.466 | 0.142 | 0.147 | 0.139 | 0.238 | 0.354 | 0.111 | 0.116 | 0.12 | 0.3 | 0.256 | 0.18 | 0.193 | 0.14 |
| EMC-BAC-2 | 0.534 | 0.578 | 0.316 | 0.181 | 0.201 | 1.18 | 0.723 | 0.224 | 0.301 | 0.232 | 0.923 | 0.979 | 0.86 | 0.198 | 0.159 | 0.965 | 0.936 | 0.726 | 0.356 | 0.262 |
| EPLC-272H | 0.967 | 0.545 | 0.221 | 0.0733 | 0.0557 | 0.19 | 0.141 | 0.0918 | 0.101 | 0.0686 | 1.08 | 0.257 | 0.664 | 0.19 | 0.0848 | 0.389 | 0.353 | 0.305 | 0.224 | 0.0962 |
| H3255 | 0.573 | 0.528 | 0.451 | 0.269 | 0.242 | 1 | 0.604 | 0.37 | 0.203 | 0.248 | 0.223 | 0.235 | 0.221 | 0.138 | 0.159 | 0.884 | 0.374 | 0.42 | 0.238 | 0.15 |
| HARA | 0.927 | 1.1 | 0.535 | 0.162 | 0.0774 | 0.328 | 0.241 | 0.131 | 0.132 | 0.117 | 0.77 | 0.836 | 0.794 | 0.604 | 0.137 | 0.593 | 0.702 | 0.373 | 0.279 | 0.131 |
| HCC-15 | 0.831 | 0.73 | 0.625 | 0.175 | 0.103 | 1.03 | 1.21 | 1.18 | 0.129 | 0.113 | 0.918 | 0.88 | 0.829 | 0.55 | 0.121 | 0.622 | 0.67 | 0.612 | 0.226 | 0.107 |
| HCC-44 | 0.932 | 0.988 | 0.931 | 0.704 | 0.391 | 0.971 | 1.03 | 0.942 | 0.226 | 0.271 | 1.01 | 0.98 | 0.897 | 0.477 | 0.17 | 0.936 | 0.918 | 0.901 | 0.845 | 0.738 |
| HCC-78 | 0.715 | 0.335 | 0.213 | 0.21 | 0.181 | 0.477 | 0.303 | 0.186 | 0.214 | 0.277 | 0.695 | 0.485 | 0.146 | 0.272 | 0.168 | 0.622 | 0.651 | 0.367 | 0.343 | 0.268 |
